Measured values: US20170027896A1, “METHODS AND COMPOSITIONS FOR THE TREATMENT OF VASCULAR MALFORMATION” (IFOM - FONDAZIONE ISTITUTO FIRC DI ONCOLOGIA MOLECOLARE, priority 2014, published 2017)
Entries after “also recorded” stand apart in the source; their conditions may differ.

Experiments:
[1] = tested on: b-catenin/Tcf4-dependent transcription; assay: Top/Fop-Flash assay in CCM3-knockout endothelial line; format: cell-based, mouse; settings: 48 h
Description: Drugs were added to confluent cells for 48 h before the indicated assays. The final concentrations used were: […] (all from Sigma-Aldrich). As all of these were dissolved in DMSO, control treatment (vehicle) was 0.1% DMSO final concentration, as for drug treatment. […] This was transfected into the endothelial cells […] using Lipofectamine 2000, according to the manufacturer instructions (Invitrogen). The pCMV plasmid for constitutive expression of b-gal was co-transfected ([…]), for normalization of luciferase expression over transfection efficiency. […] This was co-transfected with the b-gal plasmid, for normalization, as above. The Dual-Light Reporter Gene assay system (Applied Biosystems) for the combined detection of firefly luciferase and b-gal was used. The cell extraction and detection of chemiluminescence (Glomax 96 microplate luminometer; Promega) was carried out according to the manufacture instructions.

[2] = tested on: vascular malformations in the retina of CCM3-ECKO mice; assay: Retina vascular lesions and vein diameter in CCM3-ECKO mice; format: in vivo, mouse
From the text: (§1) The CCM3-flox/flox mice were generated at TaconicArtemis (Koeln, Germany). Two P-lox sequences were inserted that flank exons 4 and 5 of the murine CCM3 gene, to produce a loss-of-function mutation after excision by Ore recombinase. These CCM3-flox/flox mice were bred with Cdh5(PAC)-CreERT2 mice (Wang et al, 2010) for tamoxifen-inducible endothelial-cell-specific expression of Ore-recombinase and CCM3 gene recombination. The CCM3-flox/flox-Cdh5(PAC)-CreERT2 mice were further bred with BAT-gal mice (Maretto et al, 2003) to monitor the activation of b-catenin transcription signaling, and with Rosa 26-Enhanced […] Fluorescent Protein (EYFP) (Rosa26EYFP) mice (Srinivas et al, 2001) to monitor the expression of Ore-recombinase through the expression of EYFP. Tamoxifen (Sigma) was dissolved in corn oil and 10% ethanol (at 10 mg/ml), and then diluted 1:5 in corn oil before single intragastric administration to dpn 1-2 pups (35 mg/kg body weight), as described in^14. The control (wild-type) mice included CCM3-flox/flox-Cdh5(PAC)-CreERT2-BAT-gal mice treated with the vehicle used to dissolve the tamoxifen (corn oil plus 2% ethanol), and CCM3^+/+-Cdh5(PAC)-CreERT2-BAT-gal mice treated with tamoxifen.
Brains and eyes from mice pups were fixed in 3% paraformaldehyde immediately after dissection, and this fixing was continued overnight at 4° C. […]

[3] = tested on: vascular lesions in the brain of CCM3-ECKO mice; assay: Assessment of lesion burden in brains of CCM3-ECKO mice; format: in vivo, mouse
From the text: as §1
(§2) Brains and eyes from mice pups were fixed in 3% paraformaldehyde immediately after dissection, and this fixing was continued overnight at 4° C. The retinas were dissected from the eyes just before staining as the whole mount. Fixed brains were embedded in 4% low-melting-point agarose and sectioned along the sagittal axis ([…]) using a vibratome (1000 Plus, The Vibratome Company, St. Louis, Mo., US).
For the classification and counting of lesions, entire brains from dpn 9 littermate pups were sectioned and immunostained for Pecam as described above and in the Methods. Sections were then examined under wide-field fluorescence microscopy (10× and 20×). Lesions were classified as described in^63 as mulberry (multiple cavernae, group of more than two contiguous cavernae), single caverna (single dilated vessel with maximal diameter accommodating more than 25 red blood cells), or telangiectases, tortuous small vessels with abnormally dilated lumen). The total numbers of lesions were calculated by summing all of the types of lesions.
As the sections were […], a correction was applied to the number of mulberry lesions, which can span two sections. Therefore, the number of mulberry lesions was divided by […]. The lesions were counted and classified independently by two observers who were blinded to the treatments.
The maximal diameter of the mulberry lesions and single cavernae was used for statistical comparison.

[4] = tested on: b-catenin transcription activity in brain endothelial cells of CCM3-ECKO mice; assay: Immunostaining of brain sections of CCM3-ECKO mice (b-gal reporter, progenitor/EndMT markers, VE-cadherin); format: in vivo, mouse; settings: dpn 9
From the text: as §1, §2
Brain sections and retinas were stained as floating samples in 12-well and 96-well plates, respectively. They were blocked overnight at 4° C. in 1% fish-skin gelatin with 0.5% Triton X100 and 5% donkey serum in phosphate-buffered saline (PBS) containing 0.01% thimerosal. The samples were incubated overnight at 4° C. with the primary antibodies diluted in 1% fish-skin gelatin with 0.25% Triton X100 in PBS containing 0.01% thimerosal. Following washing with 0.1% Triton X100 in PBS, the secondary antibodies were added for 4 h at room temperature in 1% fish-skin gelatin with 0.25% Triton X100 in PBS containing 0.01% thimerosal. The incubation with DAPI was in PBS for 4 h, which was followed by several washes in PBS, post-fixating with 3% paraformaldehyde for 5 min at room temperature, and further washes in PBS. The brain sections were mounted in Vectashield with DAPI, and the coverslips fixed with nail varnish; the retinas were mounted in Prolong gold with DAPI.
The following antibodies were used: anti-Pecam (hamster; MAB1398Z, Millipore); anti-b-galactosidase (chicken; ab9361, Abcam); anti-VE-cadherin (rat monoclonal; 550548, BD Biosciences); anti-VE-cadherin (goat; sc-6458, Santa Cruz); anti-active-b-catenin (mouse monoclonal clone 8E7) dephosphorylated on Ser37 and Thr41, Millipore); anti-total-b-catenin (mouse monoclonal; Cell Signaling); anti-S100a4 (rabbit; 07-2274, Millipore); anti-Klf4 (goat; AF3158, R&D); anti-CD44 (rat; 553131, BD Biosciences); anti-ID1 (rabbit; sc-488, Santa Cruz); anti-aSMA (mouse monoclonal; F3777, Sigma); anti-GFP (rabbit; A-6455, Invitrogen); anti-podocalyxin (goat; AF1556, R&D); anti-phospho-histone H3 (rabbit; ab51776, Millipore); anti-CCM3 (rabbit; Eurogentec); anti-p-Smad1 (rabbit; 9516, Cell Signaling); anti-endomucin (rabbit; sc-65495, Santa Cruz); anti-α-tubulin (mouse monoclonal; T9026, Sigma).

[5] = tested on: co-immunoprecipitation complex of b-catenin and VE-cadherin; assay: Co-immunoprecipitation and Western blotting of b-catenin and VE-cadherin in CCM3-knockout endothelial line; format: cell-based, mouse; settings: association reduced by 35% in vehicle-KO
Description: Drugs were added to confluent cells for 48 h before the indicated assays. The final concentrations used were: […] (all from Sigma-Aldrich). As all of these were dissolved in DMSO, control treatment (vehicle) was 0.1% DMSO final concentration, as for drug treatment. Standard procedures were used to extract and analyze the protein content by Western blotting and immunoprecipitation^46. Nuclear fractionation was as described previously^62.

cyclooxygenase = settings: reported; cited from earlier work

Which “b-catenin transcriptional activity in Top/Fop Flash reporter assay” value [1] does the source give for `CSc1ccc(/C=C2/C(C)=C(CC(=O)O)c3cc(F)ccc32)cc1` [sulindac sulfide, (Z)-5-Fluoro-2-methyl-1-[4-(methylthio)benzylidene]indene-3-acetic acid] here?
Its value is “inhibited; also recorded: reduced”.

What about the “vascular malformations in the retina” value ([2]; CCM3-ECKO mice, dpn 9) of the same molecule?
The value was “inhibited; also recorded: partially normalized”.

And the diameter of the most internal tract of the retinal veins (mean±SD) ([2]; CCM3-ECKO, 30 measurements in 14 retinas, vehicle-ECKO 89.5±7.1 mm)?
The diameter of the most internal tract of the retinal veins (mean±SD) was 35 ± 7.8 µm.

And the “diameters of cerebral vessels / mulberry budding ends (Pecam immunostaining of brain sections)” value ([3]; CCM3-ECKO pups at dpn9, treated from dpn2)?
The value was “greatly reduces”.

What about the “maximal diameter of single cavernae” value ([3]; CCM3-ECKO pups dpn 9, 30 mg/kg daily) of the same molecule?
The value was “did not significantly reduce”.

And the mean maximal diameter of mulberry lesions (±SD) ([3]; CCM3-ECKO pups dpn 9, 30 mg/kg daily, vehicle 386±56 mm)?
The mean maximal diameter of mulberry lesions (±SD) was 244 ± 38 µm.

And the “mean number (±SD) of vascular lesions per brain” value ([3]; CCM3-ECKO pups dpn 9, 30 mg/kg intragastrically daily, controls 166.8±22 (sulfide study), 153.5±28 (sulfone study))?
Its value is 72.6±9.

And the “expression of nuclear reporter gene b-gal in endothelial cells of brain vasculature” value ([4]; CCM3-ECKO BAT-gal pups)?
The value was “abolition; also recorded: inhibited”.

What about the “VE-cadherin localization at endothelial cell-cell junctions in brain vessels” value ([4]; CCM3-ECKO pups) of the same molecule?
The value was “better localized at endothelial cell-cell junctions”.

And the “expression of b-catenin target genes / progenitor and EndMT markers (Klf4, S100a4, Id1) in brain endothelium” value ([4]; CCM3-ECKO pups, immunostaining)?
The value was “strongly reduces; also recorded: inhibited”.

And the “association between b-catenin and VE-cadherin (b-catenin/VE-cadherin ratio)” value [5]?
Its value is “restored to the level observed in the wild-type cells”.

And the anti-cyclooxygenase activity (cyclooxygenase)?
Its anti-cyclooxygenase activity is “inhibits”.
